Measurements published in patent US8877684B2, “Pesticidal composition comprising a synthetic compound useful as nodulation agent of leguminous plants and an insecticide compound” (Bayer CropScience AG, priority 2006, dated 2014).

Experiments:
[1] = tested on: Phaedon cochleariae; experiment: Phaedon cochleariae test: dipped cabbage leaves infested with mustard beetle larvae; format: in vivo; details: foliar, 96 h, leaf dip, after 4 d
Experimental: (§1) The expected efficacy of a given combination of two compounds is calculated as follows (see Colby, S. R., “Calculating Synergistic and antagonistic Responses of Herbicide Combinations”, Weeds 15, pp. 20-22, 1967):
(§2) • X is the efficacy expressed in % mortality of the untreated control for test compound A at a concentration of m ppm respectively m g/ha; • Y is the efficacy expressed in % mortality of the untreated control for test compound B at a concentration of n ppm respectively n g/ha; • E is the efficacy expressed in % mortality of the untreated control using the mixture of A and B at m and n ppm respectively m and n g/ha; then is
(§3) If the observed insecticidal efficacy of the combination is higher than the one calculated as “E”, then the combination of the two compounds is more than additive, i.e., there is a synergistic effect.
(§4) To produce a suitable preparation of active compound, 1 part by weight of active compound is mixed with the stated amount of solvent and emulsifier, and the concentrate is diluted with emulsifier-containing water to the desired concentration. Cabbage leaves (Brassica oleracea) are treated by being dipped into the preparation of the active compound of the desired concentration and are infested with larvae of the mustard beetle (Phaedon cochleariae) as long as the leaves are still moist.
(§5) After the specified period of time, the mortality in % is determined. […]

[2] = tested on: Myzus persicae; experiment: Myzus persicae test: cabbage leaves infested with green peach aphid dipped into the preparation; format: in vivo; details: foliar, 96 h, leaf dip, after 4 d
Experimental: as §1, §2, §3
as §4, with “oleracea) which are heavily infested by the green peach aphid (Myzus persicae)” for “oleracea)”, “concentration.” for “concentration and are infested with larvae of the mustard beetle (Phaedon cochleariae) as long as the leaves are still moist.”
as §5

O=[N+]([O-])NC1=NCCN1Cc1ccc(Cl)nc1 [Imidacloprid]
mortality at 20 ppm [1]: 70% | mortality at 0.16 ppm [2]: 10%
